Calls of active or inactive are those of the source. No cut-off for these calls is given here.
Legend:
[1] = tested on: 3T3-L1; test: Upregulation of CPT-1 gene expression in mouse 3T3L1 cells at […] after 4 days by RT-PCR analysis relative to insulin; format: functional
[2] = tested on: 3T3-L1; test: Upregulation of PGC-1 gene expression in mouse 3T3L1 cells at […] after 4 days by RT-PCR analysis relative to control; format: functional, cell-based
[3] = tested on: 3T3-L1; test: Downregulation of ACC-1 gene expression in mouse 3T3L1 cells at […] after 4 days by RT-PCR analysis relative to untreated control; format: functional
[4] = tested on: 3T3-L1; test: Downregulation of ACC-1 gene expression in mouse 3T3L1 cells at […] after 4 days by RT-PCR analysis relative to insulin; format: functional
[5] = tested on: 3T3-L1; test: Upregulation of CPT-1 gene expression in mouse 3T3L1 cells at […] after 4 days by RT-PCR analysis relative to untreated control; format: functional, cell-based
[6] = tested on: 3T3-L1; test: Downregulation of CPT-1 gene expression in mouse 3T3L1 cells at […] after 4 days by RT-PCR analysis; format: functional, cell-based

Structure (SMILES)	fold change (FC) [1]	Activity [2]	fold change (FC) [3]	fold change (FC) [4]	Activity [5]	Activity [1]	Activity [3]	Activity [6]
CC(C)CNC(=S)N/N=C\c1ccc(OCc2cn(Cc3ccccc3)nn2)cc1	5	Active	2	2	Active	–	–	–
OCCCCCCNC(=S)N/N=C\c1ccc(OCc2cn(Cc3ccccc3)nn2)cc1	–	Active	–	–	Active	Active	Active	–
CN(C)CCNC(=S)N/N=C\c1ccc(OCc2cn(Cc3ccccc3)nn2)cc1	3	inactive	2	2	Active	–	–	–
OCCNC(=S)N/N=C\c1ccc(OCc2cn(Cc3ccccc3)nn2)cc1	–	inactive	–	–	–	–	inactive	Active
CCCCCNC(=S)N/N=C\c1ccc(OCc2cn(Cc3ccccc3)nn2)cc1	2	Active	–	–	Active	–	Active	–
CCCCCCCCNC(=S)N/N=C\c1ccc(OCc2cn(Cc3ccccc3)nn2)cc1	–	Active	4	4	–	–	–	Active
S=C(NCCc1ccccc1)N/N=C\c1ccc(OCc2cn(Cc3ccccc3)nn2)cc1	–	Active	2	2	Active	Active	–	–

From ChEMBL document CHEMBL2424633, “Evaluation of the Influence of thiosemicarbazone-triazole hybrids on genes implicated in lipid oxidation and accumulation as potential anti-obesity agents” (2013)
